Laboratory results: US20240246964A1 (Arbutus Biopharma Corporation, priority 2021, published 2024)

target: human PD-L1 (Homo sapiens (Human), UniProt Q9NZQ7); test: T cell activation luciferase reporter cell culture system (T Cell Activation Assay); assay type: cell-based; settings: luciferase reporter assay; PD-L1 aAPC/CHO-K1 cells with PD-1 effector Jurkat T cells
Sequence (Q9NZQ7 19-290): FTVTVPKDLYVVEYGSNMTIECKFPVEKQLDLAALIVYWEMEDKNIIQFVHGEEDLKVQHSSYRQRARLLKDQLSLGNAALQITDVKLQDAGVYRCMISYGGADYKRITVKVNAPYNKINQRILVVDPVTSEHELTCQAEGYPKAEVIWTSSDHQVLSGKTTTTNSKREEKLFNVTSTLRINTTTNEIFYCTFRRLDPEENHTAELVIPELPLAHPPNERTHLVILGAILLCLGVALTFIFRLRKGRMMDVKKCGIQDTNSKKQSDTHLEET

SMILES	EC50
COc1cc(-c2nccc(-c3cccc(-c4ccc(CN5CC6(CCC(=O)N6)C5)c(OC)n4)c3Cl)c2Cl)ccc1CN1CCC(NC(C)=O)CC1 [Example 401, N-(1-(4-(3-Chloro-4-(2-chloro-3-(6-methoxy-5-((6-oxo-2,5-diazaspiro[3.4]-octan-2-yl)methyl)pyridin-2-yl)phenyl)pyridin-2-yl)-2-methoxybenzyl)piperidin-4-yl)acetamide]	20.6 nM
COc1nc(-c2cccc(-c3ccnc(-c4cc(OC)c5nc(CN[C@H]6CC[C@H](O)CC6)nn5c4)c3Cl)c2Cl)ccc1CNC[C@@H]1CCC(=O)N1 [Example 260, (S)-5-((((6-(2-Chloro-3-(3-chloro-2-(2-((((1r,4r)-4-hydroxycyclohexyl)amino)methyl)-8-methoxy-[1,2,4]triazolo[1,5-a]pyridin-6-yl)pyridin-4-yl)phenyl)-2-methoxypyridin-3-yl)methyl)amino)methyl)pyrrolidin-2-one]	26.8 nM
COc1cc(-c2ncnc(-c3cccc(-c4ccc(CNC[C@@H]5CCC(=O)N5)c(OC)n4)c3Cl)c2C)ccc1CNC[C@@H]1CCC(=O)N1 [Example 523, (S)-5-((((6-(2-Chloro-3-(6-(3-methoxy-4-(((((S)-5-oxopyrrolidin-2-yl)methyl)amino)methyl)phenyl)-5-methylpyrimidin-4-yl)phenyl)-2-methoxypyridin-3-yl)methyl)amino)methyl)pyrrolidin-2-one]	92.4 nM
COc1cc(-c2cccc(-c3ccnc(-c4ccc5c(c4)CN(CCNC[C@@H]4CCC(=O)N4)C5=O)c3Cl)c2Cl)cc(F)c1CNC[C@@H]1CCC(=O)N1 [Example 242, 5-(3-Chloro-4-(2-chloro-3′-fluoro-5′-methoxy-4′-(((((S)-5-oxopyrrolidin-2-yl)methyl)amino)methyl)-[1,1′-biphenyl]-3-yl)pyridin-2-yl)-2-(2-((((S)-5-oxopyrrolidin-2-yl)methyl)amino)ethyl)isoindolin-1-one]	437 nM
COc1cc(-c2nccc(-c3cccc(-c4cc(Cl)c(CNC[C@@H]5CCC(=O)N5)c(OC)n4)c3Cl)c2Cl)cc2c1CN(C[C@@H](C)O)CC2 [Cmpd 104, (S)-5-((((4-chloro-6-(2-chloro-3-(3-chloro-2-(2-((R)-2-hydroxypropyl)-8-methoxy-1,2,3,4-tetrahydroisoquinolin-6-yl)pyridin-4-yl)phenyl)-2-methoxypyridin-3-yl)methyl)amino)methyl)pyrrolidin-2-one]	30.7 nM
CNCc1ccc(-c2nccc(-c3cccc(-c4ccc(CNC)c(OC)n4)c3C)c2Cl)cc1OC [Example 395, 1-(6-(3-(3-Chloro-2-(3-methoxy-4-((methylamino)methyl)phenyl)pyridin-4-yl)-2-methylphenyl)-2-methoxypyridin-3-yl)-N-methylmethanamine]	81.8 nM
COc1cc(-c2nccc(-c3cccc(-c4ccc(CN5CCC(O)CC5)c(OC)n4)c3Cl)c2Cl)ccc1CN1CCC(O)CC1 [Example 412, 1-((6-(2-Chloro-3-(3-chloro-2-(4-((4-hydroxypiperidin-1-yl)methyl)-3-methoxyphenyl)pyridin-4-yl)phenyl)-2-methoxypyridin-3-yl)methyl)piperidin-4-ol]	15.7 nM
COc1cc(-c2nccc(-c3cccc(-c4ccc(CN5CC6(CNC6)C5)c(OC)n4)c3Cl)c2Cl)ccc1CN1CC2(CNC(=O)C2)C1 [Example 520, 2-(4-(4-(3-(5-((2,6-Diazaspiro[3.3]heptan-2-yl)methyl)-6-methoxypyridin-2-yl)-2-chlorophenyl)-3-chloropyridin-2-yl)-2-methoxybenzyl)-2,6-diazaspiro[3.4]octan-7-one]	66.6 nM
COc1nc(-c2ccnc(-c3cccc4c3CC[C@@H]4Oc3nc(OC)c(CN4CC5(CNC(=O)C5)C4)cc3C(F)(F)F)c2Cl)ccc1CN1CC2(CNC(=O)C2)C1 [Example 336, (S)-2-((3′-Chloro-6-methoxy-2′-(1-((6-methoxy-5-((7-oxo-2,6-diazaspiro[3.4]octan-2-yl)methyl)-3-(trifluoromethyl)pyridin-2-yl)oxy)-2,3-dihydro-1H-inden-4-yl)-[2,4′-bipyridin]-5-yl)methyl)-2,6-diazaspiro[3.4]octan-7-one]	95.6 nM
COc1cc(-c2nccc(-c3cccc(-c4ccc(CNC5CCN(CC(F)(F)F)CC5)c(OC)n4)c3Cl)c2Cl)ccc1CNC1CCN(CC(F)(F)F)CC1 [Example 437, N-((6-(2-Chloro-3-(3-chloro-2-(3-methoxy-4-(((1-(2,2,2-trifluoroethyl)piperidin-4-yl)amino)methyl)phenyl)pyridin-4-yl)phenyl)-2-methoxypyridin-3-yl)methyl)-1-(2,2,2-trifluoroethyl)piperidin-4-amine]	157 nM
COc1cc(-c2ncnc(-c3cccc(-c4ccc(CNC5CCOCC5)c(OC)n4)c3Cl)c2OC)ccc1CNC1CCOCC1 [Example 734, N-((6-(2-Chloro-3-(5-methoxy-6-(3-methoxy-4-(((tetrahydro-2H-pyran-4-yl)amino)methyl)phenyl)pyrimidin-4-yl)phenyl)-2-methoxypyridin-3-yl)methyl)tetrahydro-2H-pyran-4-amine]	≥ 10000 nM
COc1cc(-c2nccc(-c3cccc(-c4ccc(CNC5CCN(C(=O)CO)CC5)c(OC)n4)c3Cl)c2Cl)ccc1CN[C@H]1CC[C@H](O)CC1 [Example 539, 1-(4-(((6-(2-Chloro-3-(3-chloro-2-(4-((((1r,4r)-4-hydroxycyclohexyl)amino)methyl)-3-methoxyphenyl)pyridin-4-yl)phenyl)-2-methoxypyridin-3-yl)methyl)amino)piperidin-1-yl)-2-hydroxyethan-1-one]	31.8 nM

Now from value to compound:

EC50	SMILES
62.7 nM	COc1cc(-c2nccc(-c3cccc(-c4ccc(CNC5CCN(C(C)=O)CC5)c(OC)n4)c3Cl)c2Cl)ccc1CN1CCC(C)(N)CC1 [Example 406, 1-(4-(((6-(3-(2-(4-((4-Amino-4-methylpiperidin-1-yl)methyl)-3-methoxyphenyl)-3-chloropyridin-4-yl)-2-chlorophenyl)-2-methoxypyridin-3-yl)-methyl)-amino)piperidin-1-yl)ethan-1-one]
84.8 nM	COc1nc(-c2cccc(-c3ccnc(-c4cc(OC)c5nc(CNC(C)C)nn5c4)c3Cl)c2Cl)ccc1CNC1CCN(C(C)=O)CC1 [Cmpd 644, 1-(4-(((6-(2-chloro-3-(3-chloro-2-(2-((isopropylamino)methyl)-8-methoxy-[1,2,4]triazolo[1,5-a]pyridin-6-yl)pyridin-4-yl)phenyl)-2-methoxypyridin-3-yl)methyl)amino)piperidin-1-yl)ethan-1-one]
117 nM	COc1cc(-c2nccc(-c3cccc(-c4ccc(CNC5CC6(COC6)C5)c(OC)n4)c3Cl)c2Cl)cc2c1CN(CCCF)CC2 [Example 251, N-((6-(2-Chloro-3-(3-chloro-2-(2-(3-fluoropropyl)-8-methoxy-1,2,3,4-tetrahydroisoquinolin-6-yl)pyridin-4-yl)phenyl)-2-methoxypyridin-3-yl)methyl)-2-oxaspiro[3.3]heptan-6-amine]
205 nM	COc1cc(-c2nccc(-c3cccc(-c4ccc(CNC[C@@H]5CCC(=O)N5)c(OC)n4)c3Cl)c2Cl)ccc1CN1CCC[C@H]1C(=O)O [Cmpd 78, (4-(3-chloro-4-(2-chloro-3-(6-methoxy-5-(((((S)-5-oxopyrrolidin-2-yl)methyl)amino)methyl)pyridin-2-yl)phenyl)pyridin-2-yl)-2-methoxybenzyl)-L-proline]
65.3 nM	COc1cc(-c2nccc(-c3cccc(NC(=O)c4ccc(CNC[C@@H]5CCC(=O)N5)cn4)c3C)c2Cl)ccc1CNC[C@@H]1CCC(=O)N1 [Example 647, N-(3-(3-Chloro-2-(3-methoxy-4-(((((S)-5-oxopyrrolidin-2-yl)methyl)amino)methyl)phenyl)pyridin-4-yl)-2-methylphenyl)-5-(((((S)-5-oxopyrrolidin-2-yl)methyl)amino)methyl)picolinamide]
103 nM	COc1cc(-c2ncnc(-c3cccc(-c4ccc(CN5CC6(CNC(=O)C6)C5)c(OC)n4)c3Cl)c2Cl)ccc1CN1CC2(CNC(=O)C2)C1 [Example 554, 2-((6-(2-chloro-3-(5-chloro-6-(3-methoxy-4-((7-oxo-2,6-diazaspiro[3.4]octan-2-yl)methyl)phenyl)pyrimidin-4-yl)phenyl)-2-methoxypyridin-3-yl)methyl)-2,6-diazaspiro[3.4]octan-7-one]
≥ 10000 nM	COc1nc(-c2cccc(-c3ccnc(-c4ccc5c(c4)S(=O)(=O)CCN(C[C@H](C)O)C5)c3Cl)c2Cl)ccc1CNC[C@@H]1CCC(=O)N1 [Example 611, (S)-5-((((6-(2-Chloro-3-(3-chloro-2-(4-((S)-2-hydroxypropyl)-1,1-dioxido-2,3,4,5-tetrahydrobenzo[f][1,4]thiazepin-8-yl)pyridin-4-yl)phenyl)-2-methoxypyridin-3-yl)methyl)amino)methyl)pyrrolidin-2-one]
110 nM	COc1nc(-c2ccnc(-c3cccc4c3CC[C@@H]4Nc3nc(OC)c(CNC4CCOCC4)cc3C(F)(F)F)c2Cl)ccc1CNC[C@@H]1CCC(=O)N1 [Example 634, (S)-5-((((3′-Chloro-6-methoxy-2′-((S)-1-((6-methoxy-5-(((tetrahydro-2H-pyran-4-yl)amino)methyl)-3-(trifluoromethyl)pyridin-2-yl)amino)-2,3-dihydro-1H-inden-4-yl)-[2,4′-bipyridin]-5-yl)methyl)amino)methyl)pyrrolidin-2-one]
69.7 nM	CNCc1ccc(C(=O)Nc2cccc(-c3ccnc(-c4ccc(CNC)c(OC)c4)c3Cl)c2Cl)nc1 [Example 694, N-(2-chloro-3-(3-chloro-2-(3-methoxy-4-((methylamino)methyl)phenyl)pyridine-4-yl)phenyl)-5-((methylamino)methyl)picolinamide]
3770 nM	COc1nc(-c2cccc(-c3ccnc(-c4cc(OC)c5nc(CN6CCOCC6)cn5c4)c3Cl)c2Cl)ccc1CNC1CCN(C(C)=O)CC1 [Example 475, 1-(4-(((6-(2-Chloro-3-(3-chloro-2-(8-methoxy-2-(morpholinomethyl)imidazo[1,2-a]pyridin-6-yl)pyridin-4-yl)phenyl)-2-methoxypyridin-3-yl)methyl)amino)piperidin-1-yl)ethan-1-one]
